According to paper PMC5478727, “A Novel Small Molecule GDNF Receptor RET Agonist, BT13, Promotes Neurite Growth from Sensory Neurons in Vitro and Attenuates Experimental Neuropathy in the Rat” (Frontiers in Pharmacology, 2017):

Columns and labels:
[1] = biological target: adenosine receptor A1 (Homo sapiens, UniProt P30542); experiment: CEREP A1 (h) (antagonist radioligand); assay type: binding; conditions: BT13 1 μM; Cat. No. 0002; average of duplicate; read-out: Percentage of inhibition/potentiation from control
Chain of adenosine receptor A1 (P30542 whole entry): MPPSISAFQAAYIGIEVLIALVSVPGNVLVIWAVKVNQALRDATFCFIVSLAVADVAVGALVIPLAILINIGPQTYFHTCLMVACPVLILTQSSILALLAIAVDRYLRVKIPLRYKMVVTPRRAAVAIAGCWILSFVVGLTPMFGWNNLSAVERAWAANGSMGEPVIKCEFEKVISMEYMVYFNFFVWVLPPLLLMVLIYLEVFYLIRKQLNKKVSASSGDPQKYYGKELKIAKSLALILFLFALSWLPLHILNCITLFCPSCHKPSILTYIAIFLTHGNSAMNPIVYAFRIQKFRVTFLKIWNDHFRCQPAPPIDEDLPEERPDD

[2] = tested on: HepG2 cells
[3] = tested on: dorsal root ganglia neurons of SNL rats; experiment: Immunohistochemistry of DRG neuronal markers in rats with spinal nerve ligation; assay type: in vivo, rat
Excerpt: DRGs from rats with spinal nerve ligation treated with BT13 or vehicle were embedded in paraffin and sectioned (7 μm thickness). Sections were deparaffinized, subjected to citrate or basic antigen-retrieval procedure and probed with IB4-Alexa 488 [1:200; IB4-Alexa488, Cat# IB4 (isolectin Griffonia simplicifolia IB4) RRID:AB_2314664] and antibodies against calcitonin gene-related peptide (CGRP; 1:10,000, Peninsula Laboratory, Cat# T-4032 RRID:AB_2313775), NPY (1:10,000, Peninsula Laboratory, Cat# T-4070.0050 RRID:AB_518504), pErk1/2 (1:300, Cell Signaling, Cat# 4370L RRID:AB_2297462), pS6 (1:300, Cell Signaling, Cat# 4858L RRID:AB_1031194) or RET [1:100, kind gift of Dr. E. Kramer, Center for Molecular Neurobiology, University Medical Center Hamburg-Eppendorf, Hamburg, Germany (Meka et al., [2015])] and corresponding secondary antibodies conjugated with fluorophores (Donkey Anti-Rabbit Alexa Fluor 647 conjugate, Cat# A31573 RRID:AB_162544; Donkey anti-Mouse Alexa Fluor 647 conjugate, Cat# A-31571 RRID:AB_2536181; Goat anti-Guinea Pig, Alexa Fluor 568 conjugate, Cat# A-11075 RRID:AB_2534119, Thermo Fisher Scientific, USA) or horse radish peroxidase (VECTASTAIN Elite ABC-Peroxidase Kit antibody, Vector Laboratories, CA, USA, Cat# PK-6101 RRID:AB_2336820). In the latter case, to reveal staining slides were treated with ABC and DAB staining kits (Vector Laboratories, CA, USA) according to the manufacturer's instructions. Sections were co-stained with guinea pig anti-PGP9.5 antibodies (Abcam Cat# ab10410 RRID:AB_297150) whenever possible. Nuclei were visualized using hematoxylin or DAPI dyes. Sections were mounted in Immu-Mount (Thermo Scientific, Cat#9990402) or Coverquick 2000 (Q PATH, Cat#05547530) mounting media and images were taken with fluorescent (Zeiss Imager M2 Axio, Carl Zeiss, Germany) or bright-field (Olympus BX-61, Olympus, Japan) microscopes. Neurons were counted for two sections per DRG and the number of cell profiles with nuclei positive for each specific marker was normalized to the total number of the neurons (identified by PGP9.5 staining or by morphology) per section. Ret-positive neurons were clustered by size using Matlab software R2014b (Mathworks, USA). Statistical analysis was performed using data from three to six individual animals. To obtain sufficient sample size, the data from animals treated with 20 and 25 mg/kg of BT13 were combined.

[4] = biological target: T1, GFRα1/RET (Homo sapiens, UniProt P07949); experiment: Luciferase reporter-gene assay (PathDetect Elk-1), GFRα1/RET reporter cells; assay type: cell-based; conditions: GFRα1/RET reporter cell line
T1 construct: full-length human RET (long isoform) in pCR3.1; expressed in transfected cells; host or cells: MG87 murine fibroblasts (MG87RET + PathDetect Elk-1 + GFRα1)
T1 sequence (P07949 29-1114): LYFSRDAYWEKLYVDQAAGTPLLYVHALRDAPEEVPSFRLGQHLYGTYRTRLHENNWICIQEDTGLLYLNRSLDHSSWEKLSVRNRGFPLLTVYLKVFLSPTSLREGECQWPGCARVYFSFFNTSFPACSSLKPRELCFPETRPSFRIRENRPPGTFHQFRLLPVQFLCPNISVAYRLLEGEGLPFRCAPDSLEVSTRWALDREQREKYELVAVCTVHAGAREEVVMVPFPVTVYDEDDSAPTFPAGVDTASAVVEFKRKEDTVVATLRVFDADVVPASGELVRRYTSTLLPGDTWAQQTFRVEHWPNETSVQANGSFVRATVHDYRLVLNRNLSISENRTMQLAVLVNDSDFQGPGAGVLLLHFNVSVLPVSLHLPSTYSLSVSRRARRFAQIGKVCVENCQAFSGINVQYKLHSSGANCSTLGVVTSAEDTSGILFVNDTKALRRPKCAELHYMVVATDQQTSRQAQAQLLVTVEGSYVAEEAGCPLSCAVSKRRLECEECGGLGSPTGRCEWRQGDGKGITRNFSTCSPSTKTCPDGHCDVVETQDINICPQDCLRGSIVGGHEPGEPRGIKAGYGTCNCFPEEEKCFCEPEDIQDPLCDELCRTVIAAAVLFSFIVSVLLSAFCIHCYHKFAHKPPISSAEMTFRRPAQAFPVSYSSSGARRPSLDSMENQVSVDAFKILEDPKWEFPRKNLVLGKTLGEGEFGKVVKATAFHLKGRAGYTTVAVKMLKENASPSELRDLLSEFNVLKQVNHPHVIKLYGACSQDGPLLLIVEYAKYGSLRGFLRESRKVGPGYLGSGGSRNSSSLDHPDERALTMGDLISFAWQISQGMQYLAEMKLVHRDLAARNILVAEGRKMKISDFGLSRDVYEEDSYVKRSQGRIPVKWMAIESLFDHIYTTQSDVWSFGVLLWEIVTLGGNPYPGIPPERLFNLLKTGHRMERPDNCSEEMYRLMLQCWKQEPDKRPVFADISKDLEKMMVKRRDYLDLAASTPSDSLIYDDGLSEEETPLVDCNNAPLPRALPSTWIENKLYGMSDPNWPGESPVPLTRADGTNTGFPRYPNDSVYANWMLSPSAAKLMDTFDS

[5] = biological target: T2, serotonin receptor 5-HT2C (Homo sapiens, UniProt P28335); experiment: CEREP 5-HT2C (h) (antagonist radioligand); assay type: binding; conditions: BT13 1 μM, Cat. No. 0137, average of duplicate, read-out: Percentage of inhibition/potentiation from control
T2 construct: purchased CEREP (contract assay) 0137, 1003
T2 sequence (P28335 33-458): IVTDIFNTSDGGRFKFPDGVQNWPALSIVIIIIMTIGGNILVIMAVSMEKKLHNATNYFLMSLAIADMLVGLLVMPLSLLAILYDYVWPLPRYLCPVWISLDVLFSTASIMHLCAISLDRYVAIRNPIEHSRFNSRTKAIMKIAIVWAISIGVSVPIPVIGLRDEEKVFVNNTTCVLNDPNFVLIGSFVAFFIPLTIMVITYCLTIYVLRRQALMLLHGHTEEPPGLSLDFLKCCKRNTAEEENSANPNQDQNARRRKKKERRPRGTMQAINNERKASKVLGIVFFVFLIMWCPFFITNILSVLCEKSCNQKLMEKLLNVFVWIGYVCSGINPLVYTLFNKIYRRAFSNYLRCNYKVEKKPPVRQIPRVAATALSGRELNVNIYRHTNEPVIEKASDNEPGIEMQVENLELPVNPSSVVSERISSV

[6] = biological target: dopamine receptor D1 (Homo sapiens, UniProt P21728); experiment: CEREP D1 (h) (antagonist radioligand); assay type: binding; conditions: BT13 1 μM; Cat. No. 0044; average of duplicate; read-out: Percentage of inhibition/potentiation from control
Chain of dopamine receptor D1 (P21728 whole entry): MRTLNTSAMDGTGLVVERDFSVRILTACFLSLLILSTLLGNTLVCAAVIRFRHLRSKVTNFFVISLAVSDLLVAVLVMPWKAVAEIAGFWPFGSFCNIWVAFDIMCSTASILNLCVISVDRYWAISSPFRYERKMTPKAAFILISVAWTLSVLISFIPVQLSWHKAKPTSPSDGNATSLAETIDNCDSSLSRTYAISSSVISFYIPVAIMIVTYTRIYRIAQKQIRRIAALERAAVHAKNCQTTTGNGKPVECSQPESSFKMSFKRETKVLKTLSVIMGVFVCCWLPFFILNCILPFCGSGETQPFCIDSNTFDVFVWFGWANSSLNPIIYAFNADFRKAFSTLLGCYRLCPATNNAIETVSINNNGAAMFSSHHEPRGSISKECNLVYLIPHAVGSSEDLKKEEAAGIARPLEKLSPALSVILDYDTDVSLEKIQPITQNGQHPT

[7] = biological target: neurokinin receptor NK2 (Homo sapiens, UniProt P21452); experiment: CEREP NK2 (h) (agonist radioligand); assay type: binding; conditions: read-out: Percentage of inhibition/potentiation from control
Chain of neurokinin receptor NK2 (P21452 whole entry): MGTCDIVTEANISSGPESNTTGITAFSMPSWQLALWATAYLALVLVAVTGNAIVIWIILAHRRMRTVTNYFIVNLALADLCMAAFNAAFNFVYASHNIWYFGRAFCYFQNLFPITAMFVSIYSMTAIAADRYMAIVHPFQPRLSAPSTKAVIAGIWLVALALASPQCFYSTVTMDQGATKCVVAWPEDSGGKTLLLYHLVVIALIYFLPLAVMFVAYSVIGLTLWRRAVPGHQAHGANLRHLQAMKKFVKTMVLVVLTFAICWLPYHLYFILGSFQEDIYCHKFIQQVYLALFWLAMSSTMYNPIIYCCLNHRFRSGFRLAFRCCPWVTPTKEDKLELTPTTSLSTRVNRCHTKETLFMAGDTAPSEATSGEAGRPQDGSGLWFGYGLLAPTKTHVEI

[8] = tested on: rats with spinal nerve ligation (L5/L6); experiment: Spinal nerve ligation (Chung's) model of experimental neuropathy, von Frey test; conditions: for increase of ipsilateral paw withdrawal threshold (PWT): von Frey, day 12 post-surgery
[9] = tested on: Akt and Erk phosphorylation in parental MG87 cells; experiment: Erk1/2 and Akt phosphorylation assay in parental MG87 cells; assay type: cell-based, murine; conditions: BT13 10–100 μM
[10] = biological target: neurokinin receptor NK3 (Homo sapiens, UniProt P29371); experiment: CEREP NK3 (h) (antagonist radioligand); assay type: binding; conditions: read-out: Percentage of inhibition/potentiation from control
Chain of neurokinin receptor NK3 (P29371 whole entry): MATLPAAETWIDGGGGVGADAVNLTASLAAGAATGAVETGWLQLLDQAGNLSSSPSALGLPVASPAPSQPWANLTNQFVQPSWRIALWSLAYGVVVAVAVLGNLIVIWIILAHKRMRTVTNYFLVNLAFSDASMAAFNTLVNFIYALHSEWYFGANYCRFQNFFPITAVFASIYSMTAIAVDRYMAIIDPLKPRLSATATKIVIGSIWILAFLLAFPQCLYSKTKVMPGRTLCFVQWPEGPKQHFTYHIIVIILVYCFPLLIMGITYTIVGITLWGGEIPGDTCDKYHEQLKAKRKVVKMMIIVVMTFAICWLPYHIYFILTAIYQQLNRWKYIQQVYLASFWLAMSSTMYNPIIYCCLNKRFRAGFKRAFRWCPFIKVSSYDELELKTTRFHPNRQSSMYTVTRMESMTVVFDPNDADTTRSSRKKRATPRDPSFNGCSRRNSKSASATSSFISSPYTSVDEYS

[11] = biological target: opioid receptor mu (MOP) (Homo sapiens, UniProt P35372); experiment: CEREP Mu (MOP) (h) (agonist radioligand); assay type: binding; conditions: BT13 1 μM; Cat. No. 0118; average of duplicate; read-out: Percentage of inhibition/potentiation from control
Chain of opioid receptor mu (MOP) (P35372 whole entry): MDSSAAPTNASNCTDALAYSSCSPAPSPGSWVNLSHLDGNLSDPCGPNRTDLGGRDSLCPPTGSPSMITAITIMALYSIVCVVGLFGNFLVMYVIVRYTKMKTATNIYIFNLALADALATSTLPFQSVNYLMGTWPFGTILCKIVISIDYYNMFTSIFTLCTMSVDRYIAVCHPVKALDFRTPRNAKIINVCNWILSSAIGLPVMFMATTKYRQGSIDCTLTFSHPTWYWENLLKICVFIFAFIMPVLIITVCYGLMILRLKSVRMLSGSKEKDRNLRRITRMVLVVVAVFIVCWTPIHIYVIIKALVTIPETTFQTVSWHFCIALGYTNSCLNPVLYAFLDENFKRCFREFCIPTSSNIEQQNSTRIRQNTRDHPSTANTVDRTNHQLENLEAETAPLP

[12] = biological target: 5-HT transporter (Homo sapiens, UniProt P31645); experiment: biochemical; conditions: read-out: Percentage of inhibition/potentiation from control
Chain of 5-HT transporter (P31645 whole entry): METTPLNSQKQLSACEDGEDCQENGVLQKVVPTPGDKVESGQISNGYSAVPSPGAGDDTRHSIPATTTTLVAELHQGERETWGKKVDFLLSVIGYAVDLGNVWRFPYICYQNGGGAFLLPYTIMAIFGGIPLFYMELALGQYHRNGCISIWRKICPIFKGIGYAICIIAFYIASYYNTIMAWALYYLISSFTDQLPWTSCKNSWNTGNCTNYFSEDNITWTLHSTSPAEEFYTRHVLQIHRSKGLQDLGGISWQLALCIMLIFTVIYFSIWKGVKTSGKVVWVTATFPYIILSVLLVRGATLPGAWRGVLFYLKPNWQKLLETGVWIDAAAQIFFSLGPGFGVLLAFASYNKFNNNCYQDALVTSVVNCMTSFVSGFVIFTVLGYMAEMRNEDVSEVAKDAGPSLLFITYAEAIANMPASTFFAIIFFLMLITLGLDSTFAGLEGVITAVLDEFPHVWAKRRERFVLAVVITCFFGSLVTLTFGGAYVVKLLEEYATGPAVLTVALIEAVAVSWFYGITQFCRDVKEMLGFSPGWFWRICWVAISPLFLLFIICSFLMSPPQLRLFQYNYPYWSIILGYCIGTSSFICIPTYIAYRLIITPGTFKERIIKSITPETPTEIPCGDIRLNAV

[13] = biological target: T3, TrkA (Rattus norvegicus, UniProt P35739); experiment: Luciferase reporter-gene assay, TrkA reporter cells; assay type: cell-based; conditions: TrkA reporter cell line
T3 construct: expressed in transfected cells; host or cells: MG87 murine fibroblasts (MG87TrkA)
T3 sequence (P35739 33-799): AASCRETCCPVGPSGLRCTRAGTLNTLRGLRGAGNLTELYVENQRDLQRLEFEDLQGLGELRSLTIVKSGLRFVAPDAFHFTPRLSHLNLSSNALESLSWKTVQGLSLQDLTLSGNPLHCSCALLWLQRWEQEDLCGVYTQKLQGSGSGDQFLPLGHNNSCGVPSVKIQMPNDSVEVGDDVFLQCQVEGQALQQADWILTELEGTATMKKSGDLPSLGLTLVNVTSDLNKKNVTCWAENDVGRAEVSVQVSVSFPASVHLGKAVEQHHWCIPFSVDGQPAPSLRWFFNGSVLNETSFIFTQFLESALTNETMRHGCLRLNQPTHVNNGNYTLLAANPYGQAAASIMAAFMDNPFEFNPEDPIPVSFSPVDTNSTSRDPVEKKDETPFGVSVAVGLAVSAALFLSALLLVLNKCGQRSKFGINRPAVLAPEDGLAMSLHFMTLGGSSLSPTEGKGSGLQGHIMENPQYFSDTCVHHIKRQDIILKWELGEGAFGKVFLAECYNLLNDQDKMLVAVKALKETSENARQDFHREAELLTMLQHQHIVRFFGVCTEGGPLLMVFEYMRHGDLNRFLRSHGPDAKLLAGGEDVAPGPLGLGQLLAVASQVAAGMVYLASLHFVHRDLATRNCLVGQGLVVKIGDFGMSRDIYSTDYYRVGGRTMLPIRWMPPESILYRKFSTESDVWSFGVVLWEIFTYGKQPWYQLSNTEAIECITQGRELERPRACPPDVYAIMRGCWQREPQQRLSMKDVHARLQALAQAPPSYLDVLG

[14] = SNL rats, BT13 vs vehicle, day 12
[15] = SNL rats, vs vehicle-treated animals

Compound: CCN(CC)S(=O)(=O)c1ccc(OC)c(N2CCN(C(=O)c3ccc(F)cc3C(F)(F)F)CC2)c1 [BT13]
- inhibition at 1 µM [1]: 5%
- Cytotoxicity to human hepatoma cells (HepG2; LD50) [2]: 90.4 ± 8.5 µM
- reduction in the number of RET-positive cells in DRGs after SNL ([3]; IHC, day 12 after SNL): restored
- number of large RET-positive neurons in lesioned DRGs ([3]; IHC, size above 1,000 μm^2, vs contralateral): increased
- number of small RET-positive neurons in lesioned DRGs ([3]; IHC, size below 1,000 μm^2, vs contralateral): decreased
- IB4 positive cells per section in ipsilateral DRGs ([3]; SNL rats, BT13 20 and 25 mg/kg combined, day 12): 3%
- number of NPY-positive neurons in contralateral DRGs ([3]; SNL rats, BT13-treated, vehicle 0.0 ± 0.0): 0.0 ± 0.0
- number of CGRP-positive neurons in contralateral DRGs ([3]; SNL rats, BT13-treated, vehicle 34.30 ± 1.344): 25.09 ± 2.687
- number of IB4-positive neurons in contralateral DRGs ([3]; SNL rats, BT13-treated, vehicle 44.95 ± 4.295): 44.82 ± 1.960
- increase in number of CGRP-positive neurons in ipsilateral DRGs [3, 14]: ~ 2 times
- reduction in number of NPY-positive cells in ipsilateral DRGs [3, 14]: ~ 25%
- number of neurons positive for pErk in DRGs [3, 15]: increased
- number of neurons positive for pS6 in DRGs [3, 15]: increased
- efficacy, fold induction of luciferase above baseline [4]: 11.6 fold
- EC50 ([4]; 0.1–50 μM, read-out: EC50, luciferase activation): 17.4 µM
- inhibition at 1 µM [5]: 11%
- inhibition at 1 µM [6]: -17%
- inhibition at 1 µM [7]: 5%
- increase of ipsilateral paw withdrawal threshold (PWT) ([8]; BT13 20 mg/kg s.c. on days 1, 3, 5, 8, 10, 12): 2.5 times
- increase of ipsilateral paw withdrawal threshold (PWT) ([8]; BT13 25 mg/kg s.c. on days 1, 3, 5, 8, 10, 12): 2.9 times
- effect on contralateral PWTs ([8]; repeated post-surgical s.c. administration of BT13): did not influence
- Akt and Erk phosphorylation [9]: no Akt or Erk phosphorylation was observed
- inhibition at 1 µM [10]: 0%
- inhibition at 1 µM [11]: 1%
- inhibition at 1 µM [12]: 0%
- activation of luciferase reporter [13]: did not activate luciferase
